# Activity calls are given as the source filed them. The rule behind the calls is not given here.
# Tests used:
# [1] = system: RS4-11; assay: Downregulation of MEIS1 protein expression in human RS4-11 cells at 5 to 20 uM measured after 24 hrs by Western blot analysis; assay type: functional, cell-based; conditions: dose 5-20 µM
# [2] = system: HL-60(TB); assay: Antiproliferative activity against human HL-60(TB) cells assessed as growth inhibition measured after 48 hrs by NCI protocol based SRB assay; assay type: functional
# [3] = system: SR; assay: Antiproliferative activity against human SR cells assessed as growth inhibition measured after 48 hrs by NCI protocol based SRB assay; assay type: functional
# [4] = system: HOP-62; assay: Antiproliferative activity against human HOP-62 cells assessed as growth inhibition measured after 48 hrs by NCI protocol based SRB assay; assay type: functional
# [5] = system: NCI-H322M; assay: Antiproliferative activity against human NCI-H322M cells assessed as growth inhibition measured after 48 hrs by NCI protocol based SRB assay; assay type: functional
# [6] = system: NCI-H226; assay: Antiproliferative activity against human NCI-H226 cells assessed as growth inhibition measured after 48 hrs by NCI protocol based SRB assay; assay type: functional
# [7] = system: HCT-15; assay: Antiproliferative activity against human HCT-15 cells assessed as growth inhibition measured after 48 hrs by NCI protocol based SRB assay; assay type: functional
# [8] = system: SW-620; assay: Antiproliferative activity against human SW-620 cells assessed as growth inhibition measured after 48 hrs by NCI protocol based SRB assay; assay type: functional
# [9] = system: SF-295; assay: Antiproliferative activity against human SF-295 cells assessed as growth inhibition measured after 48 hrs by NCI protocol based SRB assay; assay type: functional
# [10] = system: SF-268; assay: Antiproliferative activity against human SF-268 cells assessed as growth inhibition measured after 48 hrs by NCI protocol based SRB assay; assay type: functional
# [11] = system: SNB-75; assay: Antiproliferative activity against human SNB-75 cells assessed as growth inhibition measured after 48 hrs by NCI protocol based SRB assay; assay type: functional
# [12] = system: M14; assay: Antiproliferative activity against human M14 cells assessed as growth inhibition measured after 48 hrs by NCI protocol based SRB assay; assay type: functional
# [13] = system: UACC-257; assay: Antiproliferative activity against human UACC-257 cells assessed as growth inhibition measured after 48 hrs by NCI protocol based SRB assay; assay type: functional
# [14] = system: OVCAR-5; assay: Antiproliferative activity against human OVCAR-5 cells assessed as growth inhibition measured after 48 hrs by NCI protocol based SRB assay; assay type: functional
# [15] = system: OVCAR-8; assay: Antiproliferative activity against human OVCAR-8 cells assessed as growth inhibition measured after 48 hrs by NCI protocol based SRB assay; assay type: functional
# [16] = system: PC-3; assay: Antiproliferative activity against human PC-3 cells assessed as growth inhibition measured after 48 hrs by NCI protocol based SRB assay; assay type: functional
# [17] = system: DU-145; assay: Antiproliferative activity against human DU-145 cells assessed as growth inhibition measured after 48 hrs by NCI protocol based SRB assay; assay type: functional
# [18] = system: RPMI-8226; assay: Cytostatic activity in human RPMI-8226 cells assessed as tumor growth inhibition measured after 48 hrs by NCI protocol based SRB assay; assay type: functional
# [19] = system: MOLT-4; assay: Cytostatic activity in human MOLT-4 cells assessed as tumor growth inhibition measured after 48 hrs by NCI protocol based SRB assay; assay type: functional
# [20] = system: EKVX; assay: Cytostatic activity in human EKVX cells assessed as tumor growth inhibition measured after 48 hrs by NCI protocol based SRB assay; assay type: functional
# [21] = system: NCI-H460; assay: Cytostatic activity in human NCI-H460 cells assessed as tumor growth inhibition measured after 48 hrs by NCI protocol based SRB assay; assay type: functional
# [22] = system: NCI-H522; assay: Cytostatic activity in human NCI-H522 cells assessed as tumor growth inhibition measured after 48 hrs by NCI protocol based SRB assay; assay type: functional
# [23] = system: NCI-H322M; assay: Cytostatic activity in human NCI-H322M cells assessed as tumor growth inhibition measured after 48 hrs by NCI protocol based SRB assay; assay type: functional
# [24] = system: NCI-H226; assay: Cytostatic activity in human NCI-H226 cells assessed as tumor growth inhibition measured after 48 hrs by NCI protocol based SRB assay; assay type: functional
# [25] = system: HCT-116; assay: Cytostatic activity in human HCT-116 cells assessed as tumor growth inhibition measured after 48 hrs by NCI protocol based SRB assay; assay type: functional
# [26] = system: COLO 205; assay: Cytostatic activity in human COLO 205 cells assessed as tumor growth inhibition measured after 48 hrs by NCI protocol based SRB assay; assay type: functional
# [27] = system: SW-620; assay: Cytostatic activity in human SW-620 cells assessed as tumor growth inhibition measured after 48 hrs by NCI protocol based SRB assay; assay type: functional
# [28] = system: U-251; assay: Cytostatic activity in human U-251 cells assessed as tumor growth inhibition measured after 48 hrs by NCI protocol based SRB assay; assay type: functional
# [29] = system: Malme-3M; assay: Cytostatic activity in human Malme-3M cells assessed as tumor growth inhibition measured after 48 hrs by NCI protocol based SRB assay; assay type: functional
# [30] = system: SK-MEL-28; assay: Cytostatic activity in human SK-MEL-28 cells assessed as tumor growth inhibition measured after 48 hrs by NCI protocol based SRB assay; assay type: functional
# [31] = system: UACC-62; assay: Cytostatic activity in human UACC-62 cells assessed as tumor growth inhibition measured after 48 hrs by NCI protocol based SRB assay; assay type: functional
# [32] = system: UACC-257; assay: Cytostatic activity in human UACC-257 cells assessed as tumor growth inhibition measured after 48 hrs by NCI protocol based SRB assay; assay type: functional
# [33] = system: OVCAR-3; assay: Cytostatic activity in human OVCAR-3 cells assessed as tumor growth inhibition measured after 48 hrs by NCI protocol based SRB assay; assay type: functional
# [34] = system: 786-0; assay: Cytostatic activity in human 786-0 cells assessed as tumor growth inhibition measured after 48 hrs by NCI protocol based SRB assay; assay type: functional
# [35] = system: ACHN; assay: Cytostatic activity in human ACHN cells assessed as tumor growth inhibition measured after 48 hrs by NCI protocol based SRB assay; assay type: functional
# [36] = system: RXF 393; assay: Cytostatic activity in human RXF 393 cells assessed as tumor growth inhibition measured after 48 hrs by NCI protocol based SRB assay; assay type: functional
# [37] = system: TK-10; assay: Cytostatic activity in human TK-10 cells assessed as tumor growth inhibition measured after 48 hrs by NCI protocol based SRB assay; assay type: functional
# [38] = system: PC-3; assay: Cytostatic activity in human PC-3 cells assessed as tumor growth inhibition measured after 48 hrs by NCI protocol based SRB assay; assay type: functional
# [39] = system: MDA-MB-231; assay: Cytostatic activity in human MDA-MB-231 cells assessed as tumor growth inhibition measured after 48 hrs by NCI protocol based SRB assay; assay type: functional
# [40] = system: Hs-578T; assay: Cytostatic activity in human Hs-578T cells assessed as tumor growth inhibition measured after 48 hrs by NCI protocol based SRB assay; assay type: functional
# [41] = read-out: LC50 (the source's name)
structure (smiles),measurement,setting,value
Cc1ccc(-c2nc3c(c(-c4ccccc4)nn3-c3ccccc3)c(-c3ccc(O)cc3)c2C#N)cc1,Activity,[1],Active
N#Cc1c(-c2ccccc2)nc2c(c(-c3ccccc3)nn2-c2ccccc2)c1-c1ccc(O)cc1,GI50,[2],3.52 µM
same,CC50,[2]; [41],> 100 µM
same,GI50,[3],2.95 µM
same,CC50,[3]; [41],> 100 µM
same,GI50,[4],2.12 µM
same,CC50,[4]; [41],9.53 µM
same,GI50,[5],1.57 µM
same,CC50,[5]; [41],5.56 µM
same,GI50,[6],1.97 µM
same,CC50,[6]; [41],37.3 µM
same,GI50,[7],1.62 µM
same,CC50,[7]; [41],8.9 µM
same,GI50,[8],1.86 µM
same,CC50,[8]; [41],6.72 µM
same,GI50,[9],1.88 µM
same,CC50,[9]; [41],9.8 µM
same,GI50,[10],2.83 µM
same,CC50,[10]; [41],47.2 µM
same,GI50,[11],2.03 µM
same,CC50,[11]; [41],28.3 µM
same,GI50,[12],2.27 µM
same,CC50,[12]; [41],23 µM
same,GI50,[13],3.13 µM
same,CC50,[13]; [41],6.55 µM
same,GI50,[14],1.75 µM
same,CC50,[14]; [41],6.66 µM
same,GI50,[15],3.14 µM
same,CC50,[15]; [41],> 100 µM
same,GI50,[16],1.82 µM
same,CC50,[16]; [41],7.86 µM
same,GI50,[17],2.62 µM
same,CC50,[17]; [41],37.7 µM
same,TGI,[18],17.9 µM
same,TGI,[19],7.86 µM
same,TGI,[20],5.1 µM
same,TGI,[21],3.26 µM
same,TGI,[22],6.03 µM
same,TGI,[23],2.96 µM
same,TGI,[24],4.51 µM
same,TGI,[25],7.32 µM
same,TGI,[26],6.31 µM
same,TGI,[27],3.53 µM
same,TGI,[28],3.97 µM
same,TGI,[29],3.83 µM
same,TGI,[30],3.05 µM
same,TGI,[31],3.18 µM
same,TGI,[32],12.1 µM
same,TGI,[33],4.45 µM
same,TGI,[34],5.35 µM
same,TGI,[35],5.89 µM
same,TGI,[36],2.35 µM
same,TGI,[37],8.19 µM
same,TGI,[38],3.78 µM
same,TGI,[39],3.31 µM
same,TGI,[40],4.46 µM
